Measurements taken from the NIST ThermoML archive (doi:10.1021/acs.jced.7b01024).
± gives the expanded uncertainty stated by the source.

Test: Boiling temperature at pressure P
Details: 101.3 kPa; Liquid; Ebulliometric method (Recirculating still)

SMILES | Boiling temperature at pressure P
CC(=O)OCC(C)C [2-methylpropyl ethanoate] | 116.60 ± 0.2 °C
C=CCO [2-propenol] | 96.8 ± 0.44 °C
CCCCOC(C)=O [butyl ethanoate] | 126.00 ± 0.2 °C
CCCCOC(=O)CC [butyl propanoate] | 145.10 ± 0.2 °C
